Laboratory results as given in patent publication US6413530B1, “Pesticidal peptides” (priority 1999, dated 2002).
Where two headings read alike, the source gives them in different places. Where a SMILES comes first, the peptide text is derived from it. Where no end group is shown, it is not given here. [ ]: non-standard residue; d: D form.

Assays:
mosquito larvae = format: in vivo; settings: newly hatched larvae on autoclaved yeast 1 mg/ml plus peptide, microtiter plates, 7 days
Procedure: Preferably, the subject peptides have an LD50 against mosquito larvae of less than 3.0 μmole/ml. More preferably, the peptides have an LD50 of less than […], and, most preferably, the peptides have an LD50 of less than 1.0 μmole/ml. As used herein, “LD50” refers to a lethal dose of a peptide able to cause 50% mortality of larvae maintained on a diet of 1 mg/ml autoclaved yeast supplemented with the pesticidal polypeptide. (Borovsky, Dov, and Farida Mahmood [1995] Regulatory Peptides 57:273-281).
TMOF can traverse the gut epithelium, enter the hemolymph and bind a gut receptor (Borovsky, D. and F. Mahmood (1995) “Feeding the mosquito Aedes aegypti with TMOF and its analogs; effect on trypsin biosynthesis and egg development,” Regulatory Peptides 57:273-281.; Borovsky et al. (1994) “Characterization and localization of mosquito-gut receptors for trypsin modulating oostatic factor using complementary peptide immunochemistry” FASEB J. 8:350-355.). This characteristic permits the testing of TMOF and its analogues by feeding them to mosquito and other pest larvae. To find out if truncated TMOF peptides have an effect on larval growth and development, a series of peptides were synthesized and tested by feeding them to mosquito larvae at concentrations of 0 to 5.0 mg/ml (Table 2). Individual, newly hatched Aedes aegypti larvae were maintained in separate microtiter plate wells on a diet of autoclaved yeast (1 mg/ml). The diet was supplemented with TMOF peptides (Table 2). An identical number of larvae maintained on yeast served as a control. […] All control groups survived and larval growth and development was normal. Since larvae swallow only a small portion of the yeast particles adsorbed the peptides, it is assumed that approximately 1 to 20 ng are taken orally at the high concentrations.

[1] = test system: First instar larvae of H. virescens; test: Feeding of first instar H. virescens on TMOF analogs for 14 days; format: in vivo, Heliothis virescens; settings: for reduction in weight: first instar larvae fed for 14 days; for Number of Dead Larvae / Weight (mg) ± S.E.M. / Weight Reduction (%) ± S.E.M.: first instar larvae, 1.6 μg analog, 14 days; for Weight Reduction (%) ± S.E.M.: versus control
Procedure: (§1) Individual first instar and fourth instar larvae of H. virescens were maintained in separate plastic cups and were fed on artificial diet blocks on which different concentrations of TMOF (0 to 1.6 mg) were adsorbed. Larvae were fed for 5 to 14 days and larval weight and trypsin activity were measured at the end of the experimental periods. […] When first instar larvae were fed for 14 days, an 18% and 26% reduction in weight was observed when analogues 15 and 14 were used (Table 4).

[2] = test system: fourth instar H. virescens; test: Feeding TMOF analogues to fourth instar H. virescens: larval weight; format: in vivo, Heliothis virescens; settings: for reduction in larval weight: fourth instar larvae fed analogue peptides for 5 days; for Weight Gain / Weight mg ± S.E.M. End: fourth instar larvae; for Weight Gain: 0.8 μg analog for 5 days; for Weight mg ± S.E.M. End: synthetic food and 0.8 μg analog for 5 days
Procedure: as §1

trypsin biosynthesis = test: Trypsin biosynthesis in guts of fourth instar H. virescens fed TMOF analogues ([3H]DFP); format: in vivo, Heliothis virescens; settings: for reduction in trypsin biosynthesis: fourth instar larvae fed analogue peptides for 5 days; for Trypsin μg ± S.E.M.: guts removed after 5 days feeding 0.8 μg analog, incubated with [3H]DFP; for Inhibition (% ± S.E.M.) of trypsin: versus control, after 5 days feeding 0.8 μg analog
Procedure: as §1

## YNPAP [Compound 9, YNPAP]
Mosquito larvae; left half of Table 2
  LD50 ± S.E.M.: 0.55 ± 0.03 mM

## YDPFP [Compound 20, YDPFP]
Mosquito larvae; left half of Table 2
  LD50 ± S.E.M.: 1.7 ± 0.4 mM

## (D)YDP [Compound 24]
Mosquito larvae; right half of Table 2
  LD50 ± S.E.M.: 0.51 ± 0.05 Mm

## FDP [Compound 33]
Mosquito larvae; right half of Table 2
  LD50 ± S.E.M.: 1.98 ± 0.6 Mm

## YDFAP [Compound 14, YDFAP]
[1]
  reduction in weight: 26%
  Number of Dead Larvae: 1
  Weight (mg) ± S.E.M.: 121 ± 7 mg
  Weight Reduction (%) ± S.E.M.: 26 ± 1.5%
[2]
  reduction in larval weight: reduction
  Weight Gain: 164 mg
  Weight mg ± S.E.M. End: 201 ± 12 mg
Mosquito larvae; left half of Table 2
  LD50 ± S.E.M.: 0.74 ± 0.13 mM
Trypsin biosynthesis
  reduction in trypsin biosynthesis: reduction
  Trypsin μg ± S.E.M.: 2.1 ± 0.2 µg
  Inhibition (% ± S.E.M.) of trypsin: 19 ± 1.5%

## DYP [Compound 31]
[1]
  Number of Dead Larvae: 1
  Weight (mg) ± S.E.M.: 149 ± 9 mg
  Weight Reduction (%) ± S.E.M.: 9 ± 0.5%
[2]
  Weight Gain: 180.5 mg
  Weight mg ± S.E.M. End: 216.7 ± 13 mg
Mosquito larvae; right half of Table 2
  LD50 ± S.E.M.: 1.27 ± 0.17 Mm
Trypsin biosynthesis
  Trypsin μg ± S.E.M.: 2.2 ± 0.3 µg
  Inhibition (% ± S.E.M.) of trypsin: 14 ± 1.8%

## YFPAP [Compound 11, YFPAP]
Mosquito larvae; left half of Table 2
  LD50 ± S.E.M.: 0.64 ± 0.03 mM

## YDLAP [Compound 13, YDLAP]
Mosquito larvae; left half of Table 2
  LD50 ± S.E.M.: 0.6 ± 0.05 mM

## ADPAP [Compound 21, ADPAP]
[1]
  Number of Dead Larvae: 0
  Weight (mg) ± S.E.M.: 141 ± 9 mg
  Weight Reduction (%) ± S.E.M.: 7 ± 0.4%
[2]
  Weight Gain: 174.1 mg
  Weight mg ± S.E.M. End: 209.7 ± 12 mg
Mosquito larvae; left half of Table 2
  LD50 ± S.E.M.: 2.0 ± 0.36 mM
Trypsin biosynthesis
  Trypsin μg ± S.E.M.: 2.4 ± 0.3 µg
  Inhibition (% ± S.E.M.) of trypsin: 5 ± 0.6%

## DAA [Compound 25]
Mosquito larvae; right half of Table 2
  LD50 ± S.E.M.: 0.91 ± 0.06 Mm

## YDPAL [Compound 7, YDPAL]
Mosquito larvae; left half of Table 2
  LD50 ± S.E.M.: 0.52 ± 0.03 mM

## YEPAP [Compound 4, YEPAP]
Mosquito larvae; left half of Table 2
  LD50 ± S.E.M.: 0.35 ± 0.02 mM

## FAP [Compound 39]
Mosquito larvae; right half of Table 2
  LD50 ± S.E.M.: 3.8 ± 0.23 Mm

## YDPAP [Compound 12, YDPAP, reference compound]
Mosquito larvae; left half of Table 2
  LD50 ± S.E.M.: 1.64 ± 0.03 mM

## YAP [Compound 36]
Mosquito larvae; right half of Table 2
  LD50 ± S.E.M.: 2.3 ± 0.5 Mm

## YDPAPPPPPP [Compound 1, YDPAP6, reference compound]
Mosquito larvae; left half of Table 2
  LD50 ± S.E.M.: 0.2 ± 0.02 mM

## MPDYPPPPP [Compound 2, MPDYP5]
Mosquito larvae; left half of Table 2
  LD50 ± S.E.M.: >3.0 mM

## YSPAP [Compound 18, YSPAP]
[1]
  Number of Dead Larvae: 0
  Weight (mg) ± S.E.M.: 168 ± 11 mg
  Weight Reduction (%) ± S.E.M.: 0%
[2]
  reduction in larval weight: reduction
  Weight Gain: 151 mg
  Weight mg ± S.E.M. End: 188 ± 10.6 mg
Mosquito larvae; left half of Table 2
  LD50 ± S.E.M.: 1.4 ± 0.03 mM
Trypsin biosynthesis
  reduction in trypsin biosynthesis: reduction
  Trypsin μg ± S.E.M.: 2.0 ± 0.2 µg
  Inhibition (% ± S.E.M.) of trypsin: 19 ± 2%

## PAA [Compound 37]
Mosquito larvae; right half of Table 2
  LD50 ± S.E.M.: 2.4 ± 0.34 Mm

## FSP [Compound 35]
Mosquito larvae; right half of Table 2
  LD50 ± S.E.M.: 2.3 ± 0.13 Mm

## ADP [Compound 40]
Mosquito larvae; right half of Table 2
  LD50 ± S.E.M.: >6.6 Mm

## YDP [Compound 34]
[1]
  Number of Dead Larvae: 0
  Weight (mg) ± S.E.M.: 157 ± 10 mg
  Weight Reduction (%) ± S.E.M.: 4 ± 0.2%
[2]
  Weight Gain: 186.3 mg
  Weight mg ± S.E.M. End: 223.4 ± 16 mg
Mosquito larvae; right half of Table 2
  LD50 ± S.E.M.: 2.3 ± 0.4 Mm
Trypsin biosynthesis
  Trypsin μg ± S.E.M.: 2.1 ± 0.3 µg
  Inhibition (% ± S.E.M.) of trypsin: 19 ± 3.2%

## YDPGP [Compound 16, YDPGP]
[1]
  Number of Dead Larvae: 2
  Weight (mg) ± S.E.M.: 153 ± 10 mg
  Weight Reduction (%) ± S.E.M.: 6 ± 0.4%
[2]
  Weight Gain: 163.1 mg
  Weight mg ± S.E.M. End: 199.8 ± 11 mg
Mosquito larvae; left half of Table 2
  LD50 ± S.E.M.: 1.1 ± 0.18 mM
Trypsin biosynthesis
  Trypsin μg ± S.E.M.: 2.1 ± 0.1 µg
  Inhibition (% ± S.E.M.) of trypsin: 17 ± 1%

## YDF [Compound 27]
Mosquito larvae; right half of Table 2
  LD50 ± S.E.M.: 0.97 ± 0.11 Mm

## AAP [Compound 29]
Mosquito larvae; right half of Table 2
  LD50 ± S.E.M.: 1.08 ± 0.07 Mm

## APA [Compound 28]
Mosquito larvae; right half of Table 2
  LD50 ± S.E.M.: 1.0 ± 0.07 Mm

## YDPLP [Compound 6, YDPLP]
Mosquito larvae; left half of Table 2
  LD50 ± S.E.M.: 1.5 ± 0.04 mM

## YDPAF [Compound 3, YDPAF]
Mosquito larvae; left half of Table 2
  LD50 ± S.E.M.: 0.33 ± 0.2 mM

## YDG [Compound 26]
Mosquito larvae; right half of Table 2
  LD50 ± S.E.M.: 0.95 ± 0.11 Mm

## FDPAP [Compound 5, FDPAP]
Mosquito larvae; left half of Table 2
  LD50 ± S.E.M.: 0.37 ± 0.15 mM

## YSF [Compound 30]
Mosquito larvae; right half of Table 2
  LD50 ± S.E.M.: 1.08 ± 0.12 Mm

## YDA [Compound 32]
Mosquito larvae; right half of Table 2
  LD50 ± S.E.M.: 1.6 ± 0.13 Mm

## C[C@H](NC(=O)[C@@H]1CCCN1C(=O)[C@@H](CC(=O)O)NC(=O)[C@@H](N)Cc1ccc(O)cc1)C(=O)N1CCC[C@H]1C(=O)O [Compound 17, Y(D)DPAP] (H-Y[dD]PAP-OH; N-terminus and C-terminus assumed)
[1]
  Number of Dead Larvae: 1
  Weight (mg) ± S.E.M.: 152 ± 27 mg
  Weight Reduction (%) ± S.E.M.: 7 ± 1%
[2]
  Weight Gain: 153 mg
  Weight mg ± S.E.M. End: 188 ± 12 mg
Trypsin biosynthesis
  Trypsin μg ± S.E.M.: 2.1 ± 0.2 µg
  Inhibition (% ± S.E.M.) of trypsin: 15 ± 1.3%

## YAPAP [Compound 8, YAPAP]
Mosquito larvae; left half of Table 2
  LD50 ± S.E.M.: 0.54 ± 0.13 mM

## DPA [Compound 23]
Mosquito larvae; right half of Table 2
  LD50 ± S.E.M.: 0.4 ± 0.03 Mm

## PAP [Compound 38]
Mosquito larvae; right half of Table 2
  LD50 ± S.E.M.: 3.17 ± 0.14 Mm

## YDPAA [Compound 19, YDPAA]
Mosquito larvae; left half of Table 2
  LD50 ± S.E.M.: 1.6 ± 0.13 mM

## N[C@@H](Cc1ccc(O)cc1)C(=O)N[C@H](CC(=O)O)C(=O)N1CCC[C@H]1C(=O)O [Compound 22, Y(D)DP] (H-Tyr-[dD]-Pro-OH; N-terminus and C-terminus assumed)
Mosquito larvae; left half of Table 2
  LD50 ± S.E.M.: 0.28 ± 0.01 mM

## YDAAP [Compound 15, YDAAP]
[1]
  reduction in weight: 18%
  Number of Dead Larvae: 0
  Weight (mg) ± S.E.M.: 133 ± 7 mg
  Weight Reduction (%) ± S.E.M.: 18 ± 1%
[2]
  reduction in larval weight: reduction
  Weight Gain: 179 mg
  Weight mg ± S.E.M. End: 217 ± 9.5 mg
Mosquito larvae; left half of Table 2
  LD50 ± S.E.M.: 1.0 ± 0.18 mM
Trypsin biosynthesis
  reduction in trypsin biosynthesis: reduction
  Trypsin μg ± S.E.M.: 2.1 ± 0.2 µg
  Inhibition (% ± S.E.M.) of trypsin: 17 ± 1.6%
